From ChEMBL document CHEMBL1649182, “Binding of faropenem and other beta-lactam agents to penicillin-binding proteins of pneumococci with various beta-lactam susceptibilities” (Antimicrob Agents Chemother, 2009)
Converted amounts (≈) assume the structure as drawn.

Legend:
[1] = Displacement of Biocillin FL from Streptococcus pneumoniae 3676 PBP1B
[2] = Displacement of Biocillin FL from Streptococcus pneumoniae 3665 PBP1B
[3] = biological target: T1, Penicillin-binding protein 2B (Streptococcus pneumoniae serotype 4 (strain ATCC BAA-334 / TIGR4), UniProt P0A3M5); experiment: Displacement of Biocillin FL from Streptococcus pneumoniae 3665 PBP2B
T1 sequence (P0A3M5 whole entry): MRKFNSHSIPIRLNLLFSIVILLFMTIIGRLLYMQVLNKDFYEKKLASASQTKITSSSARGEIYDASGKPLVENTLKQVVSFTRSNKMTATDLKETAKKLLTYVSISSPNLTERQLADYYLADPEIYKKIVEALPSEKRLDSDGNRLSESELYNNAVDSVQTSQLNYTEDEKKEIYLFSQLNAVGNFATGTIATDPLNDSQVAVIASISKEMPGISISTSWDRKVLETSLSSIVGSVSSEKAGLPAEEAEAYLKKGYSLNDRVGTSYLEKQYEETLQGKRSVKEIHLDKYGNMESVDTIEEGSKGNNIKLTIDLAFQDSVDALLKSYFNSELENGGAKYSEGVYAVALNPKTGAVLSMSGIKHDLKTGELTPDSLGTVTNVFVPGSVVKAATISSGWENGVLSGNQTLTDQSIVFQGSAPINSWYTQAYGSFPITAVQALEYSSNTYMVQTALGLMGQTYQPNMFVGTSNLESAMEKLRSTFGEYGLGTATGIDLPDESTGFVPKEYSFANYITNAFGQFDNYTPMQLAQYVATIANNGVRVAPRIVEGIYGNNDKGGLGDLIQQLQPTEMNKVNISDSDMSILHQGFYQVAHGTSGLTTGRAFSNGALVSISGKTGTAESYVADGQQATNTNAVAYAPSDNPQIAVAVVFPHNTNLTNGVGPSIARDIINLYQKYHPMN

[4] = Displacement of Biocillin FL from Streptococcus pneumoniae 3676 PBP3
[5] = system: Streptococcus pneumoniae; experiment: Antimicrobial activity against penicillin-intermediate Streptococcus pneumoniae 3665 by CLSI method; type: functional
[6] = Displacement of Biocillin FL from Streptococcus pneumoniae 3009 PBP2A
[7] = Displacement of Biocillin FL from Streptococcus pneumoniae 3665 PBP3
[8] = Displacement of Biocillin FL from Streptococcus pneumoniae 3009 PBP1B
[9] = Displacement of Biocillin FL from Streptococcus pneumoniae 3009 PBP3
[10] = system: Streptococcus pneumoniae; experiment: Antimicrobial activity against penicillin-resistant Streptococcus pneumoniae 3413 by CLSI method; type: functional
[11] = Displacement of Biocillin FL from Streptococcus pneumoniae 24 PBP1B
[12] = Displacement of Biocillin FL from Streptococcus pneumoniae 1077 PBP1B
[13] = biological target: T2, Penicillin-binding protein 1A (Streptococcus pneumoniae serotype 4 (strain ATCC BAA-334 / TIGR4), UniProt Q04707); experiment: Displacement of Biocillin FL from Streptococcus pneumoniae 3665 PBP1A
T2 sequence (Q04707 whole entry): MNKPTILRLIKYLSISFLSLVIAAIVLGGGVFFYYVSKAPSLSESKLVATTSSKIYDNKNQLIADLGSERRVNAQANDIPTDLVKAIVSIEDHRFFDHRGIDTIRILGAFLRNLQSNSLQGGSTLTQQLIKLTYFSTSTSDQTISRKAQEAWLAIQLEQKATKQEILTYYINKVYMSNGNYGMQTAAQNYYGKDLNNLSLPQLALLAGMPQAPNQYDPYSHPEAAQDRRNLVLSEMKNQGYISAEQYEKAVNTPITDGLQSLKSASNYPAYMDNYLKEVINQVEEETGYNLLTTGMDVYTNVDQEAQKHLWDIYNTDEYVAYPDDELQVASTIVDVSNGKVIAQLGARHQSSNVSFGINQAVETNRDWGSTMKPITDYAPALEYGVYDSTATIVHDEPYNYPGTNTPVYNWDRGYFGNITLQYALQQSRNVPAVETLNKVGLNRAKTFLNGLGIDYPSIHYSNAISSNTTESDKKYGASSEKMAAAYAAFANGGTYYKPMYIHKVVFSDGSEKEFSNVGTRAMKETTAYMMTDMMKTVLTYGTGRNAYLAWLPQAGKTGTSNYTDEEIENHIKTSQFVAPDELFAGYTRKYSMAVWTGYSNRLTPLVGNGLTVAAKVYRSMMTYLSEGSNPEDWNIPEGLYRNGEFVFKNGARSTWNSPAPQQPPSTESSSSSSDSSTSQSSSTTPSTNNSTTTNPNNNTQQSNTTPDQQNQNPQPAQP

[14] = biological target: T3, Penicillin-binding protein 2x (Streptococcus pneumoniae serotype 4 (strain ATCC BAA-334 / TIGR4), UniProt P14677); experiment: Displacement of Biocillin FL from Streptococcus pneumoniae 1077 PBP2X
T3 sequence (P14677 whole entry): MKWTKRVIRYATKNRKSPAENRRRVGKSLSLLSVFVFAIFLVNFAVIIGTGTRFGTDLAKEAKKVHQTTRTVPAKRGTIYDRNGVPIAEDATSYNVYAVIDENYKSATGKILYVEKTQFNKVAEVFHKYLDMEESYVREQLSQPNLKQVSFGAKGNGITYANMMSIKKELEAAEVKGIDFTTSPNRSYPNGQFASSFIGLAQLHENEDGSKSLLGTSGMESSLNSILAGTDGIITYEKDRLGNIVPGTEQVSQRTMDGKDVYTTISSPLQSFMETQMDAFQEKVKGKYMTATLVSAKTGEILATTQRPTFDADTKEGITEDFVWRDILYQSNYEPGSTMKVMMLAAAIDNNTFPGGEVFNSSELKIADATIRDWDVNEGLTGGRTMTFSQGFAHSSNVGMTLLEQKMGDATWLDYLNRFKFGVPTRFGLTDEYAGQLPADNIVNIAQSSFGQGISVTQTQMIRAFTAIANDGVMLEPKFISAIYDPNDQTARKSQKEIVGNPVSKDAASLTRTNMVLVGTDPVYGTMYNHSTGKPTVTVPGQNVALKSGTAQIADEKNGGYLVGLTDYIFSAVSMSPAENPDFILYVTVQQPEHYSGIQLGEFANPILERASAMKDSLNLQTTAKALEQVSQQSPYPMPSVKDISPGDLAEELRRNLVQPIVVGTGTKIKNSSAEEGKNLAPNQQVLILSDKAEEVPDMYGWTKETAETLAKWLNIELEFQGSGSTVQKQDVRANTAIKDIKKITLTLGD

[15] = biological target: T2, Penicillin-binding protein 1A; experiment: Displacement of Biocillin FL from Streptococcus pneumoniae 3676 PBP1A
[16] = Displacement of Biocillin FL from Streptococcus pneumoniae 24 PBP2X
[17] = Displacement of Biocillin FL from Streptococcus pneumoniae 2527 PBP3
[18] = Displacement of Biocillin FL from Streptococcus pneumoniae 24 PBP3
[19] = Displacement of Biocillin FL from Streptococcus pneumoniae 3243 PBP1B
[20] = Displacement of Biocillin FL from Streptococcus pneumoniae 1076 PBP3
[21] = Displacement of Biocillin FL from Streptococcus pneumoniae 1077 PBP3

Compound	IC50 [1]	IC50 [2]	IC50 [3]	IC50 [4]	MIC [5]	IC50 [6]	IC50 [7]	IC50 [8]	IC50 [9]	MIC [10]	IC50 [11]	IC50 [12]	IC50 [13]	IC50 [14]	IC50 [15]	IC50 [16]	IC50 [17]	IC50 [18]	IC50 [19]	IC50 [20]	further results
CC1(C)S[C@@H]2[C@H](NC(=O)[C@H](N)c3ccc(O)cc3)C(=O)N2[C@H]1C(=O)O [AMOXICILLIN]	0.116 µg/mL (≈ 0.317 µM)	0.079 µg/mL (≈ 0.216 µM)	602 nM	0.019 µg/mL (≈ 0.052 µM)	0.125 µg/mL (≈ 0.342 µM)	0.08 µg/mL (≈ 0.219 µM)	0.019 µg/mL (≈ 0.052 µM)	0.059 µg/mL (≈ 0.161 µM)	0.047 µg/mL (≈ 0.129 µM)	2 µg/mL (≈ 5.47 µM)	1.103 µg/mL (≈ 3.02 µM)	0.006 µg/mL (≈ 0.0164 µM)	183 nM	60.2 nM	1150 nM	0.117 µg/mL (≈ 0.32 µM)	0.022 µg/mL (≈ 0.0602 µM)	0.049 µg/mL (≈ 0.134 µM)	0.165 µg/mL (≈ 0.452 µM)	0.051 µg/mL (≈ 0.14 µM)	IC50 [21]: 0.022 µg/mL (≈ 0.0602 µM)
CO/N=C(\C(=O)N[C@@H]1C(=O)N2C(C(=O)O)=C(COC(N)=O)CS[C@H]12)c1ccco1 [CEFUROXIME]	0.038 µg/mL (≈ 0.0895 µM)	0.016 µg/mL (≈ 0.0377 µM)	34700 nM	0.048 µg/mL (≈ 0.113 µM)	0.125 µg/mL (≈ 0.295 µM)	0.008 µg/mL (≈ 0.0189 µM)	0.047 µg/mL (≈ 0.111 µM)	0.024 µg/mL (≈ 0.0566 µM)	0.024 µg/mL (≈ 0.0566 µM)	4 µg/mL (≈ 9.43 µM)	0.923 µg/mL (≈ 2.17 µM)	0.008 µg/mL (≈ 0.0189 µM)	4.71 nM	14.1 nM	18.9 nM	0.198 µg/mL (≈ 0.467 µM)	0.038 µg/mL (≈ 0.0895 µM)	0.002 µg/mL (≈ 0.00471 µM)	0.075 µg/mL (≈ 0.177 µM)	0.021 µg/mL (≈ 0.0495 µM)	IC50 [21]: 0.071 µg/mL (≈ 0.167 µM)
C[C@@H](O)[C@H]1C(=O)N2C(C(=O)O)=C([C@H]3CCCO3)S[C@H]12 [FAROPENEM]	0.005 µg/mL (≈ 0.0175 µM)	0.012 µg/mL (≈ 0.0421 µM)	165 nM	0.009 µg/mL (≈ 0.0315 µM)	0.125 µg/mL (≈ 0.438 µM)	0.016 µg/mL (≈ 0.0561 µM)	0.005 µg/mL (≈ 0.0175 µM)	0.002 µg/mL (≈ 0.00701 µM)	0.006 µg/mL (≈ 0.021 µM)	1 µg/mL (≈ 3.5 µM)	0.06 µg/mL (≈ 0.21 µM)	0.005 µg/mL (≈ 0.0175 µM)	105 nM	687 nM	87.6 nM	0.758 µg/mL (≈ 2.66 µM)	0.007 µg/mL (≈ 0.0245 µM)	0.015 µg/mL (≈ 0.0526 µM)	0.001 µg/mL (≈ 0.0035 µM)	0.015 µg/mL (≈ 0.0526 µM)	IC50 [21]: 0.006 µg/mL (≈ 0.021 µM)
C[C@@H](O)[C@H]1C(=O)N2C(C(=O)O)=C(SCCNC=N)C[C@H]12 [IMIPENEM ANHYDROUS]	0.182 µg/mL (≈ 0.608 µM)	0.077 µg/mL (≈ 0.257 µM)	2170 nM	0.188 µg/mL (≈ 0.628 µM)	0.03 µg/mL (≈ 0.1 µM)	0.054 µg/mL (≈ 0.18 µM)	0.171 µg/mL (≈ 0.571 µM)	0.009 µg/mL (≈ 0.0301 µM)	0.039 µg/mL (≈ 0.13 µM)	0.125 µg/mL (≈ 0.418 µM)	0.71 µg/mL (≈ 2.37 µM)	0.106 µg/mL (≈ 0.354 µM)	965 nM	598 nM	838 nM	2.048 µg/mL (≈ 6.84 µM)	0.034 µg/mL (≈ 0.114 µM)	0.2 µg/mL (≈ 0.668 µM)	0.108 µg/mL (≈ 0.361 µM)	0.032 µg/mL (≈ 0.107 µM)	IC50 [21]: 0.219 µg/mL (≈ 0.732 µM)
CC1(C)S[C@@H]2[C@H](NC(=O)Cc3ccccc3)C(=O)N2[C@H]1C(=O)O [PENICILLIN G]	0.021 µg/mL (≈ 0.0628 µM)	0.029 µg/mL (≈ 0.0867 µM)	467 nM	0.007 µg/mL (≈ 0.0209 µM)	0.125 µg/mL (≈ 0.374 µM)	0.011 µg/mL (≈ 0.0329 µM)	0.01 µg/mL (≈ 0.0299 µM)	0.001 µg/mL (≈ 0.00299 µM)	0.001 µg/mL (≈ 0.00299 µM)	4 µg/mL (≈ 12 µM)	0.248 µg/mL (≈ 0.742 µM)	0.005 µg/mL (≈ 0.015 µM)	92.7 nM	23.9 nM	35.9 nM	0.323 µg/mL (≈ 0.966 µM)	0.014 µg/mL (≈ 0.0419 µM)	0.004 µg/mL (≈ 0.012 µM)	0.01 µg/mL (≈ 0.0299 µM)	0.016 µg/mL (≈ 0.0478 µM)	IC50 [21]: 0.01 µg/mL (≈ 0.0299 µM)
